Measurements: patent US20230416258A1, “BENZ[…], AND PREPARATION METHOD THEREFOR AND USE THEREOF” (CHINA PHARMACEUTICAL UNIVERSITY, priority 2020, published 2023)

Test system: KM mice
Assay: Test for drug-induced disappearance of righting reflex in mice
Assay type: in vivo
Conditions: single rapid bolus via tail vein
How it was run: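 Female KM mice (18–25 g), randomly grouped, given a single rapid bolus via tail vein. Latency (administration to loss of righting reflex) and duration (loss to recovery) recorded.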

Which results are given for `COC(=O)CC[C@@H]1N=C(c2ccccn2)c2cc(Br)ccc2-n2c(SCCCN(C)C)nnc21` [Compound 118, methyl (S)-3-(8-bromo-6-(pyridin-2-yl)-1-(3-((dimethylamino)propyl)thio)-4H-benzo[f][1,2,4]triazolo[4,3-a][1,4]diazepin-4-yl)propionate]?
Duration (30 mg/kg): 15.44 min; Latency (30 mg/kg): 0.32 min

Which Duration (30 mg/kg) does the source give for `COC(=O)CC[C@@H]1N=C(c2ccccc2F)c2cc(Br)ccc2-n2c(SCCN3CCCC3)nnc21` [Compound 120, methyl (S)-3-(8-bromo-6-(2-fluorophenyl)-1-(2-((pyrrolidin-1-yl)ethyl)thio)-4H-benzo[f][1,2,4]triazolo[4,3-a][1,4]diazepin-4-yl)propionate] here?
Its Duration is 19.47 min.

What about the Latency (30 mg/kg) of the same compound?
Its Latency is 0.29 min.

How did the Duration (60 mg/kg) turn out when `COC(=O)CC[C@@H]1N=C(c2ccccc2Cl)c2cc(Br)ccc2-n2c(SCCN3CCCC3)nnc21` [Compound 121, methyl (S)-3-(8-bromo-6-(2-chlorophenyl)-1-((2-(pyrrolidin-1-yl)ethyl)thio)-4H-benzo[f][1,2,4]triazolo[4,3-a][1,4]diazepin-4-yl)propionate] was run?
The Duration was 16.67 min.

And the Latency (60 mg/kg)?
Its Latency is 0.18 min.

`COC(=O)CC[C@@H]1N=C(c2ccccc2Cl)c2cc(Cl)ccc2-n2c(SCCN3CCCCC3)nnc21` [Compound 122, methyl (S)-3-(8-chloro-6-(2-chlorophenyl)-1-(2-((piperidin-1-yl)ethyl)thio)-4H-benzo[f][1,2,4]triazolo[4,3-a][1,4]diazepin-4-yl)propionate] was tested. Which Duration (30 mg/kg) did it give?
Its Duration is 28.06 min.

What about the Latency (30 mg/kg) of the same compound?
The Latency was 0.30 min.

Which results are given for `COC(=O)CC[C@@H]1N=C(c2ccccc2F)c2cc(Br)ccc2-n2c(SCCN3CCCCC3)nnc21` [Compound 123, methyl (S)-3-(8-bromo-6-(2-fluorophenyl)-1-(2-((piperidin-1-yl)ethyl)thio)-4H-benzo[f][1,2,4]triazolo[4,3-a][1,4]diazepin-4-yl)propionate]?
Duration (15 mg/kg): 1.38 min; Latency (15 mg/kg): 0.30 min; Duration (30 mg/kg): 53.03 min; Latency (30 mg/kg): 0.23 min

How did the Duration (15 mg/kg) turn out when `COC(=O)CC[C@@H]1N=C(c2ccccc2Cl)c2cc(Cl)ccc2-n2c(SCc3ccncc3)nnc21` [Compound 124, methyl (S)-3-(8-chloro-6-(2-chlorophenyl)-1-(2-((pyridin-4-yl)methyl)thio)-4H-benzo[f][1,2,4]triazolo[4,3-a][1,4]diazepin-4-yl)propionate] was run?
Its Duration is 7.67 min.

What about the Latency (15 mg/kg) of the same compound?
The Latency was 0.18 min.

What about the Duration (30 mg/kg) of the same compound?
The Duration was 13.31 min.

And the Latency (30 mg/kg)?
Its Latency is 0.23 min.

With `COC(=O)CC[C@@H]1N=C(c2ccccc2F)c2cc(Br)ccc2-n2c(SCc3ccncc3)nnc21` [Compound 125, methyl (S)-3-(8-bromo-6-(2-fluorophenyl)-1-(2-((pyridin-4-yl)methyl)thio)-4H-benzo[f][1,2,4]triazolo[4,3-a][1,4]diazepin-4-yl)propionate] as the compound, how does the Duration (30 mg/kg) read?
The Duration was 7.81 min.

What about the Latency (30 mg/kg) of the same compound?
The Latency was 0.19 min.

How did the Duration (30 mg/kg) turn out when `COC(=O)CC[C@@H]1N=C(c2ccccc2Cl)c2cc(Cl)ccc2-n2c(SCCN3CCC(F)(F)CC3)nnc21` [Compound 127, methyl (S)-3-(8-chloro-6-(2-chlorophenyl)-1-(2-((4,4-difluoropiperidin-1-yl)ethyl)thio)-4H-benzo[f][1,2,4]triazolo[4,3-a][1,4]diazepin-4-yl)propionate] was run?
The Duration was 18.11 min.

What about the Latency (30 mg/kg) of the same compound?
The Latency was 0.43 min.

Which results are given for `COC(=O)CC[C@@H]1N=C(c2ccccc2F)c2cc(Br)ccc2-n2c(SCCN3CCC(F)(F)CC3)nnc21` [Compound 128]?
Duration (30 mg/kg): 7.98 min; Latency (30 mg/kg): 0.42 min

How did the Duration (30 mg/kg) turn out when `COC(=O)CC[C@@H]1N=C(c2ccccc2Cl)c2cc(Cl)ccc2-n2c(SC(=O)N3CCN(C)CC3)nnc21` [Compound 130, methyl (S)-3-(8-chloro-6-(2-chlorophenyl)-1-(2-(4-methylpiperazine-1-carbonyl)thio)-4H-benzo[f][1,2,4]triazolo[4,3-a][1,4]diazepin-4-yl)propionate] was run?
The Duration was 18.27 min.

And the Latency (30 mg/kg)?
Its Latency is 0.52 min.

Which Duration (30 mg/kg) does the source give for `COC(=O)CC[C@@H]1N=C(c2ccccc2F)c2cc(Br)ccc2-n2c(SC(=O)N3CCN(C)CC3)nnc21` [Compound 131] here?
The Duration was 6.84 min.

And the Latency (30 mg/kg)?
The Latency was 0.56 min.

With `CCN(CC)CCCSc1nnc2n1-c1ccc(Cl)cc1C(c1ccccc1Cl)=N[C@H]2CCC(=O)OC` [Compound 132, methyl (S)-3-(8-chloro-6-(2-chlorophenyl)-1-(3-((diethylamino)propyl)thio)-4H-benzo[f][1,2,4]triazolo[4,3-a][1,4]diazepin-4-yl)propionate] as the compound, how does the Duration (30 mg/kg) read?
Its Duration is 18.05 min.

And the Latency (30 mg/kg)?
Its Latency is 0.87 min.

With `COC(=O)CC[C@@H]1N=C(c2ccccc2Cl)c2cc(Cl)ccc2-n2c(SCCN(C)C)nnc21` [Compound 133, methyl (S)-3-(8-chloro-6-(2-chlorophenyl)-1-(2-((dimethylamino)ethyl)thio)-4H-benzo[f][1,2,4]triazolo[4,3-a][1,4]diazepin-4-yl)propionate] as the compound, how does the Duration (30 mg/kg) read?
Its Duration is 2.24 min.

And the Latency (30 mg/kg)?
The Latency was 0.26 min.

For `COC(=O)CC[C@@H]1N=C(c2ccccc2F)c2cc(Br)ccc2-n2c(SCCN(C)C)nnc21` [Compound 134, methyl (S)-3-(8-bromo-6-(2-fluorophenyl)-1-(2-((dimethylamino)ethyl)thio)-4H-benzo[f][1,2,4]triazolo[4,3-a][1,4]diazepin-4-yl)propionate], which Duration (30 mg/kg) is on record?
The Duration was 6.54 min.

And the Latency (30 mg/kg)?
The Latency was 0.27 min.

With `O=C(CC[C@@H]1N=C(c2ccccc2Cl)c2cc(Cl)ccc2-n2c1n[nH]c2=S)OCCN1CCOCC1` [Compound 137, (S)-3-(8-chloro-6-(2-chlorophenyl)-1-thio-2,4-dihydro-1H-benzo[f][1,2,4]triazolo[4,3-a][1,4]diazepin-4-yl)propionic acid-2-morpholinoethyl ester] as the compound, how does the Duration (30 mg/kg) read?
The Duration was 21.45 min.

And the Latency (30 mg/kg)?
The Latency was 0.67 min.

`COC(=O)CC[C@@H]1N=C(c2ccccc2Cl)c2cc(Cl)ccc2-n2c(SCCn3ccnc3)nnc21` [Compound 138, methyl (S)-3-(8-chloro-6-(2-chlorophenyl)-1-(2-((1H-imidazol-1-yl)ethyl)thio)-4H-benzo[f][1,2,4]triazolo[4,3-a][1,4]diazepin-4-yl)propionate] was tested. Which Duration (30 mg/kg) did it give?
The Duration was 6.94 min.

And the Latency (30 mg/kg)?
The Latency was 0.27 min.

Which results are given for `COC(=O)CC[C@@H]1N=C(c2ccccc2F)c2cc(Br)ccc2-n2c(SCCn3ccnc3)nnc21` [Compound 139, methyl (S)-3-(8-bromo-6-(2-fluorophenyl)-1-(2-((1H-imidazol-1-yl)ethyl)thio)-4H-benzo[f][1,2,4]triazolo[4,3-a][1,4]diazepin-4-yl)propionate]?
Duration (30 mg/kg): 19.99 min; Latency (30 mg/kg): 0.38 min

How did the Duration (30 mg/kg) turn out when `COC(=O)CC[C@@H]1N=C(c2ccccc2Cl)c2cc(Cl)ccc2-n2c(SCCn3cccc3)nnc21` [Compound 140, methyl (S)-3-(8-chloro-6-(2-chlorophenyl)-1-(2-((1H-pyrrol-1-yl)ethyl)thio)-4H-benzo[f][1,2,4]triazolo[4,3-a][1,4]diazepin-4-yl)propionate] was run?
The Duration was 21.65 min.

And the Latency (30 mg/kg)?
The Latency was 0.45 min.

Which results are given for `CCN(C)C(=O)Sc1nnc2n1-c1ccc(Cl)cc1C(c1ccccc1Cl)=N[C@H]2CCC(=O)OC` [Compound 142, methyl (S)-3-(8-chloro-6-(2-chlorophenyl)-1-((ethyl(methyl)carbamoyl)thio)-4H-benzo[f][1,2,4]triazolo[4,3-a][1,4]diazepin-4-yl)propionate]?
Duration (30 mg/kg): 10.35 min; Latency (30 mg/kg): 0.21 min

How did the Duration (30 mg/kg) turn out when `COC(=O)CC[C@@H]1N=C(c2ccccc2Cl)c2cc(Cl)ccc2-n2c(SCCC(=O)N(C)C)nnc21` [Compound 143, methyl (S)-3-(8-chloro-6-(2-chlorophenyl)-1-(3-((dimethylamino)-3-oxopropyl)thio)-4H-benzo[f][1,2,4]triazolo[4,3-a][1,4]diazepin-4-yl)propionate] was run?
The Duration was 9.62 min.

What about the Latency (30 mg/kg) of the same compound?
The Latency was 0.64 min.

For `COC(=O)CC[C@@H]1N=C(c2ccccc2Cl)c2cc(Cl)ccc2-n2c(SCC3=NCCN3)nnc21` [Compound 144, methyl (S)-3-(8-chloro-6-(2-chlorophenyl)-1-(((4,5-dihydro-1H-imidazol-2-yl)methyl)thio)-4H-benzo[f][1,2,4]triazolo[4,3-a][1,4]diazepin-4-yl)propionate], which Duration (30 mg/kg) is on record?
The Duration was 5.32 min.

And the Latency (30 mg/kg)?
Its Latency is 0.45 min.

For `COC(=O)CC[C@@H]1N=C(c2ccccc2Cl)c2cc(Cl)ccc2-n2c1n[nH]c2=S` [Tautomer of compound 2, methyl (S)-3-(8-chloro-6-(2-chlorophenyl)-1-thio-2,4-dihydro-1H-benzo[f][1,2,4]triazolo[4,3-a][1,4]diazepin-4-yl)propionate], which Duration (30 mg/kg) is on record?
The Duration was 10.35 min.

And the Latency (30 mg/kg)?
Its Latency is 1.10 min.

Which Duration (30 mg/kg) does the source give for `COC(=O)CC[C@@H]1N=C(c2ccccn2)c2cc(Br)ccc2-n2c1n[nH]c2=S` [Tautomer of compound 3, methyl (S)-3-(8-bromo-6-(pyridin-2-yl)-1-thio-2,4-dihydro-1H-benzo[f][1,2,4]triazolo[4,3-a][1,4]diazepin-4-yl)propionate] here?
Its Duration is 8.27 min.

What about the Latency (30 mg/kg) of the same compound?
Its Latency is 0.65 min.

`COC(=O)CC[C@@H]1N=C(c2ccccc2)c2ccccc2-n2c1n[nH]c2=S` [Tautomer of compound 5, methyl (S)-3-(6-phenyl-1-thio-2,4-dihydro-1H-benzo[f][1,2,4]triazolo[4,3-a][1,4]diazepin-4-yl)propionate] was tested. Which Duration (30 mg/kg) did it give?
Its Duration is 7.82 min.

And the Latency (30 mg/kg)?
The Latency was 0.73 min.

What does the source list for `COC(=O)CC[C@@H]1N=C(c2ccc(F)cc2)c2ccccc2-n2c1n[nH]c2=S` [Tautomer of compound 6, methyl (S)-3-(6-(4-fluorophenyl)-1-thio-2,4-dihydro-1H-benzo[f][1,2,4]triazolo[4,3-a][1,4]diazepin-4-yl)propionate]?
Duration (30 mg/kg): 8.84 min; Latency (30 mg/kg): 0.73 min

What does the source list for `COC(=O)CC[C@@H]1N=C(c2ccccc2)c2cc(Cl)ccc2-n2c1n[nH]c2=S` [Tautomer of compound 7, methyl (S)-3-(8-chloro-6-phenyl-1-thio-2,4-dihydro-1H-benzo[f][1,2,4]triazolo[4,3-a][1,4]diazepin-4-yl)propionate]?
Duration (30 mg/kg): 9.22 min; Latency (30 mg/kg): 0.95 min
